Reference: US20240010685A1, “RNA SENSORS AND USES THEREOF” (YISSUM RESEARCH DEVELOPMENT COMPANY OF THE HEBREW …, priority 2020, published 2024)
Values joined by “and” are separate entries in the source; they are usually repeats but may differ in a detail not shown here. Identical values can stand only once.

Experiments:
CCAT1 = assay: fluorescence of CCAT1 FIT-PNA with RNA; conditions: [RNA]=1.5 μM and [FIT-PNA]=1 μM
Excerpt: Methylating the N-7 position of Guanosine base of a PNA monomer (G+ PNA monomer) results in an improvement in the hybridization to complementary DNA whilst avoiding PNA:PNA inter- and intra-duplex formation. As enhancement of FIT-PNA fluorescence depends on the ratio between ss/ds forms (PNA/PNA:RNA), lowering the background fluorescence of ssPNA should result in greater sensitivity (i.e. increased fluorescence enhancement). In the ss form, the FIT-PNA has low background fluorescence due to […] interactions between the aromatic BisQ and adjacent aromatic PNA monomers (especially purines: G and A). As BisQ has a delocalized positive charge (from nitrogen to nitrogen), the introduction of an adjacent positive charge on G or A causes electrostatic repulsion between BisQ and G+/A+ resulting in reduced background fluorescence. […] Data points to both a decrease in signal background of ssFIT-PNA and to an increase in fluorescence in duplex form (FIT-PNA:RNA) in comparison to non-modified CCAT1 FIT-PNA (FIG. 7). […]
In some embodiments, the modified or charged bases, G^+ and A^+, may be provided with a cp group positioned in their vicinity or as a cpG^+or cpA^+ monomer, in similarity to cpBisQ (Scheme 4). […] Data points to an increase in fluorescence in duplex form (FIT-PNA:RNA) in comparison to non-modified CCAT1 FIT-PNA as well as G+ and cpG modified CCAT1 FIT-PNA sequences (FIG. 8). […]

[1] = system: BRAF V600E point mutation; assay: fluorescence spectra of BRAF FIT-PNA with fully matched RNA (mutant) and mis-match RNA (WT); conditions: 1 μM PNA
Excerpt: The data points to the added value of introducing the PEG8 linker. Clearly, the addition of the PEG8 linker improves the signal for fully matched RNA without losing the discrimination for the SNP. The addition of cpPNAs on both sides of BisQ (Table 2) results in an increased fluorescence in signal with mutant RNA (FIG. 6), however, the signal for WT RNA (with mismatch) also increases. This leads to some loss of discrimination for this SNP.
FIGS. 5A-B depict the added value of the PEG8 linker. Fluorescence spectra of CLIP6 FIT-PNA (5A, right) and, CLIP6-PEG8-FIT-PNA (5B, left) with fully matched RNA (mutant) and mis-match RNA (WT).
FIG. 6 depicts the increase in fluorescence for BRAF FIT-PNA substituted with cp. Fluorescence spectra of CLIP6-PEG8-cpFIT-PNA (1 μM) with fully matched RNA (mutant, (1.5 μM)) and mis-match RNA (WT, (1.5 μM)). A two-fold increase in fluorescence is obtained in comparison to the non-modified FIT-PNA (CLIP6-PEG8-FIT-PNA). An 18-fold enhancement in fluorescence is observed for CLIP6-PEG8-cpFIT-PNA in duplex form (with complementary RNA) in comparison to single strand.

complementary RNA [2] = assay: Tm of RNA:PNA duplexes (duplex stability); assay type: binding; design: ΔTm: unit not given here; conditions: for Tm: RNA:PNA duplex; for ΔTm: vs unmodified control FIT-PNA of the set (1 or 5)
Method: In addition, the enhancement upon duplex formation with complementary RNA observed for these FIT-PNAs (4 and 7) was quite dramatic; 47-fold for FIT-PNA 7 and 46-fold for FIT-PNA 4 (FIG. 1B). The effect of cpPNA monomers to duplex stability was assessed by measuring Tm for all RNA:PNA duplexes (Table 2). The stabilizing effect was smaller for FIT-PNA in comparison to that reported for cpPNA. It is believed that this is due to the close proximity of the modified bases to the bulkier BisQ surrogate base in comparison to natural bases. For all measurements an additional transition at 60° C. was observed.

complementary RNA [3] = assay: photophysical properties of duplex cpFIT-PNAs with complementary RNA (fluorescence spectrometry); assay type: physicochemical; conditions: for BR (brightness) / εmax / λmax, abs / Φ (quantum yield, QY): duplex with complementary RNA; for Φ (quantum yield, QY): relative to Cresyl Violet, 3 μM FIT-PNA in PBS pH 7; for I/I0: fluorescence enhancement, duplex with complementary RNA vs single strand; for enhancement upon duplex formation with complementary RNA: [FIT-PNA]=3 μM, [RNA]=4.5 μM
Method: (A) set 1 showing fluorescence of FIT-PNA:RNA duplex for FIT-PNAs 1-4, (B) set 2 showing fluorescence of FIT-PNA:RNA duplex for FIT-PNAs 5-7 and, (C) enhanced fluorescence of bis-cpFIT-PNAs (4 and 7) after RNA hybridization. [FIT-PNA]=[cpFIT-PNA]=3 μM, [RNA]=4.5 μM.
Fluorescence spectra were recorded by using a Jasco FT-6500 spectrometer. Measurements were carried out in fluorescence quartz cuvettes (10 mm) at a 3 μM concentration of FIT-PNA in a PBS buffered solution (100 mM NaCl, 10 mM NaH2PO4, pH 7). Quantum yields were determined relative to Cresyl Violet in PBS^3. PNAs were hybridized to complementary RNA using a 1:1.5 mixture of PNA:RNA at 37° C. for 1-2 hr. Samples were excited at 575 nm and emission spectra were recorded at 585-800 nm.

[4] = system: 11-mer RNAs with all three possible mismatches; assay: mismatch sensitivity of cpFIT-PNAs, plate reader; assay type: binding
Method: Mismatch sensitivity was evaluated for single and doubly modified cpFIT-PNAs. Mismatch sensitivity for mono-substituted cpPNAs (cpFIT-PNAs 2, 3, and 6) are presented in FIGS. 3A-B. Double substituted cpFIT PNAs 4 and 7 were compared to FIT-PNA controls (1 and 5) and are presented in FIGS. 2A-B. 11-mer RNAs with all three possible mismatches were introduced either at 3′ (to the left of BisQ) or 5′ (to the right of BisQ) positions opposite to the nearby base to BisQ. One clear observation is that cpFIT-PNAs have significant selectivity for pyrimidine-pyrimidine mismatches (CC, TU, TC, CU where underlined base refers to PNA base) in comparison to FIT-PNA controls with the exception of the CU mismatch for cpFIT-PNA 4. For cpFIT-PNA 7, TC and TU mismatches are discriminated by a factor of 7.5 and 13.9-fold (vs. full matched RNA), respectively. This is around a 3 to 5-fold increase with respect to non-modified FIT-PNA 5.
(A) double cpFIT-PNA 4 compared to FIT-PNA 1 and (B) double cpFIT-PNA 7 compared to FIT-PNA 5. FIT-PNAs were annealed to all possible 11-mer RNAs and measured on a plate reader (λex=575 λnm, Em=619 nm, n=3). [FIT-PNA]=[cpFIT-PNA]=0.5 μM, [RNA]=0.75 μM.
FIGS. 3A-B provide mismatch sensitivity of single substituted cpFIT-PNAs. (A) cpFIT-PNA 2 and 3 and (B) cpFIT-PNA 6. FIT-PNAs (0.5 μM) were annealed to all possible 11-mer RNAs (0.75 μM) and measured on a plate reader (λex=575 nm, λem=619 nm, n=3).
(§1) Fluorescence end points were recorded by using a Cytation 3 plate reader. Measurements were carried out in Greiner 96 well black plates with flat bottom, at 0.5 μM concentration in a PBS buffered solution (100 mM NaCl, 10 mM NaH2PO4, pH 7). FIT-PNAs were hybridized to complementary RNA using a 1:1.5 mixture of PNA:RNA at 37° C. for 1-2 hr or by allowing overnight incubation at RT (for limit of detection (LOD) measurements). Samples were excited at 575 nm and measured at 615 nm.

complementary RNA [5] = assay: limit of detection (LOD) measurements, plate reader; conditions: overnight incubation at RT
Method: As used herein, the term “amount” made in reference to presence of an SOI in a sample, refers to a quantity of the SOI that is sufficient to interact with a conjugate of the invention to provide a measurable signal. This amount is in the low nM range as shown for FIT-PNA 7 (Table 2).
as §1

## CCAACCT-BisQ-G^+TAAGTG-dK4 [G^+ modified CCAT1 FIT-PNA]
CCAT1
  increase in fluorescence: 7 fold

## CCAACCT-BisQ-cpG^+TAAGTG-dK4 [cpG^+ modified CCAT1 FIT-PNA]
CCAT1
  increase in fluorescence: 10 fold

## GATTcpT-BisQ-TCTGTAGCTAC-PEG8-CLIP6 [CLIP6-PEG8-cpFIT-PNA]
[1]; 1.5 μM RNA
  enhancement in fluorescence in duplex form (with complementary RNA) in comparison to single strand: 18 fold
[1]; 1.5 μM fully matched RNA (mutant)
  increase in fluorescence in comparison to the non-modified FIT-PNA (CLIP6-PEG8-FIT-PNA): two-fold

## ^3′(4)KD-ATA-C-BisQ-TACAAC-^5′ [FIT-PNA 1, reference compound]
Complementary RNA [2]
  Tm: 50.2 °C
Complementary RNA [3]
  BR (brightness): 15 mM⁻¹ cm⁻¹ and 15.0 mM⁻¹ cm⁻¹
  εmax: 83.2 mM⁻¹ cm⁻¹
  λmax, abs: 588 nm
  Φ (quantum yield, QY): 0.18
  I/I0: 12

## ^3′(4)KD-ATA-C-BisQ-cpT-ACAAC-5′ [FIT-PNA 2]
Complementary RNA [2]
  Tm: 53.7 °C
  ΔTm: (+3.5)
Complementary RNA [3]
  BR (brightness): 16.4 mM⁻¹ cm⁻¹
  εmax: 91.0 mM⁻¹ cm⁻¹
  λmax, abs: 590 nm
  Φ (quantum yield, QY): 0.18
  I/I0: 15

## ^3′(4)KD-ATA-cpC-BisQ-cpT-ACAAC-5′ [FIT-PNA 4]
Complementary RNA [2]
  Tm: 54.7 °C
  ΔTm: (+4.5)
Complementary RNA [3]
  enhancement upon duplex formation with complementary RNA: 46 fold
  BR (brightness): 28.3 mM⁻¹ cm⁻¹
  εmax: 85.8 mM⁻¹ cm⁻¹
  λmax, abs: 590 nm
  Φ (quantum yield, QY): 0.33
  I/I0: 46

## ^3′(4)KD-ATA-cpT-BisQ-T-ACAAC-^5′ [FIT-PNA 3]
Complementary RNA [2]
  Tm: 53.7 °C
  ΔTm: (+3.5)
Complementary RNA [3]
  BR (brightness): 25.7 mM⁻¹ cm⁻¹
  εmax: 95.2 mM⁻¹ cm⁻¹
  λmax, abs: 589 nm
  Φ (quantum yield, QY): 0.27
  I/I0: 12

## ^3′(4)KD-ATACA-T-BisQ-C-AAC-^5′ [FIT-PNA 5, reference compound]
Complementary RNA [2]
  Tm: 51.8 °C
Complementary RNA [3]
  BR (brightness): 16.5 mM⁻¹ cm⁻¹
  εmax: 82.3 mM⁻¹ cm⁻¹
  λmax, abs: 587 nm
  Φ (quantum yield, QY): 0.20
  I/I0: 24

## ^3′(4)KD-ATACA-cpT-BisQ-C-AAC-^5′ [FIT-PNA 6]
Complementary RNA [2]
  Tm: 53 °C
  ΔTm: (+1.2)
Complementary RNA [3]
  BR (brightness): 29.1 mM⁻¹ cm⁻¹
  εmax: 85.7 mM⁻¹ cm⁻¹
  λmax, abs: 586 nm
  Φ (quantum yield, QY): 0.34
  I/I0: 46

## ^3′(4)KD-ATACA-cpT-BisQ-cpC-AAC-^5′ [FIT-PNA 7]
Complementary RNA [2]
  Tm: 52.9 °C
  ΔTm: (+1.1)
[4]
  increase in TC/TU mismatch discrimination with respect to non-modified FIT-PNA 5: 3 to 5 fold
[4]; 0.5 μM FIT-PNA, 0.75 μM RNA
  TC mismatch discrimination vs. full matched RNA: 7.5 fold
  TU mismatch discrimination vs. full matched RNA: 13.9 fold
Complementary RNA [3]
  enhancement upon duplex formation with complementary RNA: 47 fold
  BR (brightness): 35.3 mM⁻¹ cm⁻¹
  εmax: 90.6 mM⁻¹ cm⁻¹
  λmax, abs: 586 nm
  Φ (quantum yield, QY): 0.39
  I/I0: 47
Complementary RNA [5]
  amount of SOI sufficient to provide a measurable signal: low nM range
